Assay [1] concerns C57BL/6 mice with UUO surgical ligation. In words: Example 1: UUO mice, renal function evaluation (plasma BUN, creatinine). In kind it is in vivo. Particulars: Example 1; for Reduction in BUN compared to vehicle, significance in words: Bonferroni post-test, Suplatast Tosylate 60, Iguratimod 15, Lobenzarit 48, Actarit 60, Udenafil 40 mg/kg PO QD; for BUN in comparison to control groups, in words: UUO, male C57BL/6 mice, PO QD days 1-14, doses of Table 1. How it is done:
(§1) Male 9-12 week old C57BL/6 mice of 23-25 grams body weight were used. All mice were acclimated for a minimum of 5 days prior to the start of the study and housed individually in microisolators throughout the study in a 12:12 light-dark cycle on a standard maintenance mouse chow diet (Harlan Teklad 2018) with food and water given ad libitum. Prior to surgery, all mice were weighed for baseline body weight.
(§2) The UUO surgical intervention was performed according to previously described methods known in the art (Le Meur Y et al., Macrophage accumulation at a site of renal inflammation is dependent on the M-CSF/c-fms pathway, J Leukocyte Biol., 72:530-537; 2002).
(§3) All mice were first anesthetized by intraperitoneal injection with a rodent cocktail (ketamine 10 mg/mL and Xyaline 1 mg/mL) in normal saline (10 μL/g body weight). Pedal reflex and movement of the vibrissae were used to determine the state of unconsciousness. A state of unconsciousness was confirmed after a period of about 5 minutes in all animals. All mice were then shaved on the left side of the abdomen. The shaved area was first swabbed with iodine and then swabbed with alcohol. A vertical incision was made through the skin with a #22 scalpel and the skin was then retracted. A further incision of about 2.5 cm was then made through the peritoneum avoiding any major blood vessels. The peritoneum was then retracted and the left kidney was exposed.
(§4) The left kidney was then brought to the surface by hooking the ureter directly beneath the kidney with sterile forceps and gently manipulating the kidney upward. The ureter was ligated at two points directly below the kidney with 5-0 surgical silk with excess suture cut away and discarded post-ligation. The kidney was then gently placed back to its correct anatomical position and the abdomen was lavaged with 1 mL sterile saline to replenish fluid loss. The peritoneum and then skin were sutured with 5-0 Mersilene, and the incision site was gently wiped with iodine. All mice were then placed individually in clean cages that were set on top of a thermal blanket until recovery at about 30-60 minutes later. In some examples, sham surgery was performed as a control by following all steps of the UUO surgical intervention procedure except ligation.
(§5) Following surgery, the mice were divided into 14 individual study groups of 8 mice each and, following post-surgical recovery, administered a once-daily oral treatment for 14 days. The mice in 12 of the 14 study groups (hereafter known as “treatment groups”) had all received the UUO surgical ligation and were treated individually with a distinct pharmacologic compound as set out in Table 1. The mice in 2 of the 14 study groups were treated individually with a pharmaceutically acceptable vehicle with no active ingredient. The pharmaceutically acceptable vehicle in all groups was 0.5% carboxymethyl cellulose (CMC). All mice were sacrificed with CO2 on post-surgical day 15.
The dose selected for the animal studies was determined by taking the maximum known human daily dose, dividing by the average weight of an adult (˜60-70 kg) to get a human mg/kg dose. Then that number was multiplied by 12 to convert to a mouse dose based on conventional dosing tables. See Nair and Jacob, J Basic Clin Pharm March 2016-May 2016, 7(2):27-31.
(§6) Serum collection: A blood sample was then collected from all mice and plasma analyzed for urea nitrogen and creatinine. Plasma was stored at −80° C. for possible future analysis.
(§7) Renal Function Evaluation: Renal function and disease progression was evaluated by BUN (blood urea nitrogen) as previously described. The BUN of each study group consisted of the BUN average of all mice in each study group.

For assay [2] the test system is unchanged. As to the kind of experiment: Example 2: UUO mice, renal function evaluation (plasma BUN, creatinine). In kind it is in vivo. How it is done: (§8) In this example, healthy young female C57BL/6 mice were used for the study. At the commencement of the study, mice were between 9-12 weeks of age, weighing 23-25 g. All the mice were obtained from Charles River Laboratories.
(§9) The mice were maintained in a controlled environment with a temp 70-72° F., humidity 30-70%, with a photo cycle of 12 hours of light and 12 hours of dark. They were provided with Harlan Teklad 2018 standard maintenance mouse chow diet and drinking water ad libitium.
(§10) After five days of acclimatization, the mice were grouped according to their body weight. There were ten groups of ten mice each. Nine groups of ten mice each underwent UUO as described above and the other group of ten mice underwent a sham procedure to serve as a no-surgery control.
(§11) Following surgery, the mice were divided into 10 individual study groups of 10 mice each and, following post-surgical recovery, administered a once-daily oral treatment for 14 days. The mice in 8 of the 10 study groups had all received the UUO surgical ligation and were treated individually with a distinct pharmacologic compound as set out in Table 6. The mice in 2 of the 10 study groups were treated individually with a pharmaceutically acceptable vehicle with no active ingredient. The pharmaceutically acceptable vehicle in all groups was 0.5% carboxymethyl cellulose (CMC). All mice were sacrificed with CO2 on post-surgical day 15.
(§12) The dose selected for the animal studies was determined by taking the maximum known human daily dose, dividing by the average weight of an adult (˜60-70 kg) to get a human mg/kg dose. That number was multiplied by 12 to convert to a mouse dose based on conventional dosing tables. See Nair and Jacob, J Basic Clin Pharm March 2016-May 2016, 7(2):27-31.
as §6
(§13) The data are presented as the mean obtained from Microsoft Excel or GraphPad Prism version 5.00 for Windows (GraphPad Software, San Diego California USA). Data were analyzed using two-way ANOVA using Bonferroni and Tamhane post-tests. Differences between groups were considered significant at p<0.05.
as §7

For assay [3] the test system is unchanged. As to the kind of experiment: Example 2: UUO mice, kidney weight evaluation. In kind it is in vivo. Particulars: group mean, UUO, female C57BL/6 mice, PO QD days 1-14, mg/kg: Telmisartan 3, Bemithyl 200, Repirinast 30, Telmisartan+Bemithyl 3+200, Telmisartan+Repirinast 3+30, Cenicriviroc 40, Bromantane 40. How it is done:
as §8, §9, §10, §11, §12
Kidney weight: The UUO was then examined in situ to ensure that the surgical ligation ties remained patent. Both the ligated (UUO) and non-ligated kidneys were removed for analysis. Weights of both kidneys were measured using a laboratory balance.
as §13
Kidney Weight Evaluation: Kidney weight, which indicates functional and pathological changes in the kidney, was evaluated by measuring the weight of both the ligated (UUO) and non-ligated kidneys as previously described. The ligated and non-ligated kidney weights of each study group consisted of the respective kidney weight averages of all mice in each study group.

Assay [4] is described as follows: Example 2: UUO mice, mean body weight change following surgery. In kind it is in vivo, C57BL/6 mice. Particulars: UUO, female C57BL/6 mice, PO QD days 1-14, mg/kg: Telmisartan 3, Bemithyl 200, Repirinast 30, Telmisartan+Bemithyl 3+200, Telmisartan+Repirinast 3+30, Cenicriviroc 40, Bromantane 40. How it is done:
as §8, §9, §10, §11, §12
Body weight: The body weights were measured on days 1, 4, 7, 10 and 14 using a laboratory balance.
Body weights were measured on post-surgical days 1, 4, 7, 10 and 14 as previously described. The mean body weight change of each study group was calculated using the body weight average of all mice in each study group.

The test system of assay [5] is C57BL/6 mice with UUO surgical ligation. As to the kind of experiment: Example 2: UUO mice, renal fibrosis evaluation (Sirius Red histology score). In kind it is in vivo. How it is done: as §8, §9, §10, §11, §12
Histopathology: Formalin-fixed kidney cross-section samples were subjected histopathological scoring with Sirius Red staining, and imaged at a magnification of ×20, using standard techniques. All three sections were stained and evaluated. The analysis was performed by a board-certified veterinarian pathologist. The presence of interstitial damage and severity score was assessed according to the following criteria: 0=normal; 1=light; 2=moderate; 3=severe.
as §13
Renal Fibrosis Evaluation: Renal fibrosis and interstitial damage was evaluated by histochemical staining of renal cross-sections with Sirius Red as previously described. The Histology Score of each study group consisted of the histology score average of all mice in each study group.

The test system is the same in assay [6]. In words: Example 1: UUO mice, renal fibrosis evaluation (Sirius Red histology score). Particulars: Bemithyl 200, Emoxypine 160, Suplatast Tosylate 60, Udenafil 40, Telmisartan 5 mg/kg PO QD. In kind it is in vivo. How it is done: as §1, §2, §3, §4, §5
The dose selected for the animal studies was determined by taking the maximum known human daily dose, dividing by the average weight of an adult (˜60-70 kg) to get a human mg/kg dose. […]
Histopathology: Formalin-fixed kidney cross-section samples were subjected histopathological scoring with Sirius Red staining, and imaged at a magnification of ×20, using standard techniques. All three sections were stained and evaluated. […] The presence of interstitial damage and severity score was assessed according to the following criteria: 0=normal, 1=light, 2=moderate, 3=severe. […]

[7] abbreviates: Example 2, mg/kg PO QD: Telmisartan 3, Bemithyl 200, Repirinast 30, Telmisartan+Bemithyl 3+200, Telmisartan+Repirinast 3+30, Cenicriviroc 40, Bromantane 40.

Each structure is given as a SMILES string. Entries after “also recorded” stand apart in the source; their conditions may differ. Marks after values point to notes of the source that are not given here.

Take `CC(=O)Nc1ccc(CC(=O)O)cc1` [Actarit, (4-Acetamidophenyl)acetic acid]: in assay [1], the “Reduction in BUN compared to vehicle, significance in words” value (“Reduction in BUN … significance in words” for short) is on record as “significant reductions in BUN”; the “BUN in comparison to control groups, in words” value (shortened to “BUN in comparison”) is “less renal dysfunction and disease progression than the positive control treatment; also recorded: decreased in comparison to the sham surgery control group”.
In the case of `CCCCOCCOc1ccc(-c2ccc3c(c2)/C=C(/C(=O)Nc2ccc([S@@+]([O-])Cc4cncn4CCC)cc2)CCCN3CC(C)C)cc1` [Cenicriviroc], in assay [2] (setting [7]), the “Level of BUN compared to vehicle or other agents, in words” value was “this reduction was not significant”. Also, the BUN in assay [2] (plasma at sacrifice day 15, group mean, * significant vs vehicle Bonferroni, # Tamhane (p<0.05), UUO, female C57BL/6 mice, PO QD days 1-14, mg/kg: Telmisartan 3, Bemithyl 200, Repirinast 30, Telmisartan+Bemithyl 3+200, Telmisartan+Repirinast 3+30, Cenicriviroc 40, Bromantane 40) is given as 19.9 mg/dL. For the same compound, in assay [2] (plasma at sacrifice day 15, group mean, UUO, female C57BL/6 mice, PO QD days 1-14, mg/kg: Telmisartan 3, Bemithyl 200, Repirinast 30, Telmisartan+Bemithyl 3+200, Telmisartan+Repirinast 3+30, Cenicriviroc 40, Bromantane 40), the Creatinine is listed as 0.21 mg/dL. The “Drained Left Kidney” value in assay [3] (ligated kidney drained) is recorded as 0.1683 g. Also, the “Excised Left Kidney” value in assay [3] (ligated kidney) amounted to 0.4091 g. Further, the “Right Kidney (g)” value in assay [3] (unligated kidney) was 0.1342* g. Moreover, the “Mean Body Weight Change Following Surgery, Day 1” value in assay [4] (Day 1) came to 0 g. Moreover, the “Mean Body Weight Change Following Surgery, Day 4” value in assay [4] (Day 4) is -0.30 g. In assay [4] (Day 7), the “Mean Body Weight Change Following Surgery, Day 7” value was -0.12 g. Besides, the “Mean Body Weight Change Following Surgery, Day 10” value in assay [4] (Day 10) worked out at 0.18 g. Moreover, the “Mean Body Weight Change Following Surgery, Day 14” value in assay [4] (Day 14) is recorded as 0.82 g. Also, in assay [5] (setting [7]), the “Level of kidney fibrosis / histology score compared to vehicle or other agents, in words” value is on record as “statistically insignificant improvements”. In assay [5] (Sirius Red, 0=normal, 1=light, 2=moderate, 3=severe, group mean, UUO, female C57BL/6 mice, PO QD days 1-14, mg/kg: Telmisartan 3, Bemithyl 200, Repirinast 30, Telmisartan+Bemithyl 3+200, Telmisartan+Repirinast 3+30, Cenicriviroc 40, Bromantane 40), the “Histology Score” value was 1.63*#. The “Reduction of fibrosis (%) (versus vehicle)” value in assay [5] (from histology score, UUO, female C57BL/6 mice, PO QD days 1-14, mg/kg: Telmisartan 3, Bemithyl 200, Repirinast 30, Telmisartan+Bemithyl 3+200, Telmisartan+Repirinast 3+30, Cenicriviroc 40, Bromantane 40) came to 32%.
Turning to `CCc1nc(C)ccc1O` [Emoxypine, 2-Ethyl-6-methyl-3-hydroxypyridine], the “Kidney fibrosis / Histology Score, significance and comparison in words” value in assay [6] was “the same as the positive control treatment group; also recorded: significant reductions in kidney fibrosis; also recorded: significant reduction in fibrosis compared to vehicle”. Further, the “BUN in comparison” value in assay [1] was “less renal dysfunction and disease progression than the positive control treatment”.
Consider `CS(=O)(=O)Nc1cc2occ(NC=O)c(=O)c2cc1Oc1ccccc1` [Iguratimod, N-(7-(Methylsulfonamido)-4-oxo-6-phenoxy-4H-chromen-3-yl)formamide], for which, in assay [1], the “Reduction in BUN … significance in words” value is “significant reductions in BUN”; the “BUN in comparison” value is “less renal dysfunction and disease progression than the positive control treatment; also recorded: decreased in comparison to the sham surgery control group”.
`O=C(O)c1ccccc1Nc1cc(Cl)ccc1C(=O)O` [Lobenzarit, 2-[(2-Carboxyphenyl)amino]-4-chlorobenzoic acid]: in assay [1], the “Reduction in BUN … significance in words” value is listed as “significant reductions in BUN”; the “BUN in comparison” value was “less renal dysfunction and disease progression than the positive control treatment; also recorded: decreased in comparison to the sham surgery control group”.

Values taken from patent US12280026B2, “Use of repirinast in the prophylaxis or treatment of renal fibrosis or kidney disease” (ALGERNON PHARMACEUTICALS INC., priority 2018, dated 2025).
